Measurements from patent US20250066310A1, “MULTI-SUBSTITUTED URACIL DERIVATIVE AND PREPARATION METHOD THEREFOR AND APPLICATION THEREOF” (HANGZHOU ADAMERCK PHARMLABS INC., priority 2021, published 2025).

How the values were obtained:
[1] = tested on: rats with autologous thrombus and thrombin-induced cerebral ischemic injury; experiment: Ischemic brain injury induced by autologous thrombus and thrombin in rats (i.v., alone or with urokinase); type: in vivo, SD rats; conditions: n = 10
Experimental: Experimental Methods: A model of cerebral ischemic injury in SD rats was prepared by embolizing the middle cerebral artery of rats with autologous thrombus and thrombin via the external carotid artery to the internal carotid artery and the rats were randomly divided into 5 groups according to behavioral scores, a sham group (only the external carotid artery was isolated); a model-control group (saline was given to both groups in equal volume); urokinase (5000 U/kg) group; compound 1-1 ([…]) group; with 20 animals in each group (10 for detecting the rate of cerebral infarction, and the other 10 for pathological testing). Each group was administered slowly in the tail vein (1 ml per minute) 2 h after modeling, and the decrease in blood flow was monitored after thrombin injection and 120 min after administration. Neurobehavioral scoring was performed on the rats after 24 h to determine the neurological function of the rats; 2,3,5-triphenyltetrazolium chloride (TTC) staining was used to determine the rate of cerebral infarction and cerebral water content, and hematoxylin-eosin (HE) staining was used to observe the pathological damage of the brain in rats administered with the drug 2 h after cerebral ischemia.

[2] = tested on: rats with focal cerebral ischemia (MCAO)/reperfusion; experiment: Prophylactic administration, cerebral ischemia-reperfusion injury (MCAO/R) in rats; type: in vivo; conditions: 6 mg/kg tail vein, Mean ± SD, n = 8
Experimental: Experimental methods: SD rats were randomly divided into 6 groups, set as sham group, model control group, positive control drug ozagrel (6 mg/kg) group, and test drug compound 1-1 high (9 mg/kg), medium (3 mg/kg), and low (1 mg/kg) dose group. The administered groups were preadministered by tail vein injection, and the sham and model control groups were given an equal volume of saline, once a day for 3 consecutive days. Ten minutes after the last administration, the rat MCAO/R model was established, and reperfusion was performed 2 h after ischemia. 24 h after MCAO reperfusion, neurobehavioral scores were performed to determine the neurological function of rats; 2,3,5-triphenyltetrazolium chloride (TTC) staining method was used to determine the rate of cerebral infarction and cerebral water content in rats.

Row | Compound | Cerebral infarction rate ([1]; 5000 U/kg i.v., TTC staining, mean ± S.D.) | behavioral score ([1]; 5000 U/kg i.v., after 24 h, Mean ± SD) | cerebral water content (%) ([1]; 5000 U/kg i.v., mean ± S.D.) | Percentage decrease two hours after administration (%) ([1]; cerebral blood flow, 5000 U/kg i.v. 2 h after modeling, Mean ± SD) | Percentage decrease after thrombin injection (%) ([1]; cerebral blood flow, before administration, 5000 U/kg group, Mean ± SD) | Pathology Score ([1]; cerebral ischemic areas, 5000 U/kg i.v., mean ± SD) | Cerebral infarction rate (%) ([2]; 3 days before MCAO/R, 24 h after reperfusion) | behavioral score ([2]; MCAO/R) | cerebral water content (%) ([2]; MCAO/R)
1 | Urokinase | 9.72 ± 9.89 | 1.60 ± 0.70 | 79.78 ± 0.72 % | 37.12 ± 4.49 % | 50.10 ± 7.94% | 1.75 ± 0.86 |  |  | 
2 | O=C(O)/C=C/c1ccc(Cn2ccnc2)cc1 [Ozagrel, ozagrel, reference compound] |  |  |  |  |  |  | 17.07 ± 10.69 % | 1.50 ± 0.76 | 81.00 ± 0.98 %
